Source: patent US20220274979A1 (Bayer Pharma Aktiengesellschaft, priority 2018, published 2022)

Assays:
[1] = molecular target: T1, Epidermal Growth Factor Receptor (EGFR) (Homo sapiens, UniProt P00533); test: EGFR kinase assay (TR-FRET); assay type: biochemical; conditions: 10 μM ATP; read-out: EGFR kinase inhibition IC50
T1 construct: purchased Sigma-Aldrich E3641
Description: EGFR inhibitory activity of compounds of the present invention was quantified employing the TR-FRET based EGFR assay as described in the following paragraphs.
Epidermal Growth Factor Receptor (EGFR) affinity purified from human carcinoma A431 cells (Sigma-Aldrich, # E3641) was used as kinase. As substrate for the kinase reaction the biotinylated peptide biotin-Ahx-[…] (SEQ ID NO: 8, C-terminus in amid form) was used which can be purchased e.g. form the company Biosyntan GmbH (Berlin-Buch, Germany).
For the assay 50 nL of a 100 fold concentrated solution of the test compound in DMSO was pipetted into a black low volume 384 well microtiter plate (Greiner Bio-One, Frickenhausen, Germany), 2 μL of a solution of EGFR in aqueous assay buffer [50 mM Hepes/HCl pH 7.0, 1 mM MgCl2, 5 mM MnCl2, 0.5 mM activated sodium ortho-vanadate, 0.005% (v/v) Tween-20]were added and the mixture was incubated for […] at 22° C. to allow pre-binding of the test compounds to the enzyme before the start of the kinase reaction. Then the kinase reaction was started by the addition of 3 μL of a solution of adenosine-tri-phosphate (ATP, 16.7 μM=>final conc. in the 5 μL assay volume is 10 μM) and substrate (1.67 μM =>final conc. in the 5 μL assay volume is 1μM) in assay buffer and the resulting mixture was incubated for a reaction time of […] at 22° C. The concentration of EGFR was adjusted depending of the activity of the enzyme lot and was chosen appropriate to have the assay in the linear range, typical concentration were about 3 U/ml. The reaction was stopped by the addition of 5 μl of a solution of HTRF detection reagents (0.1 μM streptavidine-XL665 [Cis Biointernational]and 1 nM PT66-Tb-Cryptate, an terbium-cryptate labelled anti-phospho-tyrosine antibody from Cis Biointernational [instead of the PT66-Tb-cryptate PT66-Eu-Chelate from Perkin Elmer can also be used]) in an aqueous EDTA-solution (80 mM EDTA, 0.2% (w/v) bovine serum albumin in 50 mM HEPES pH 7.5).
The resulting mixture was incubated 1 h at 22° C. to allow the binding of the biotinylated phosphorylated peptide to the streptavidine-XL665 and the PT66-Eu-Chelate. Subsequently the amount of phosphorylated substrate was evaluated by measurement of the resonance energy transfer from the PT66-Tb-Cryptate to the streptavidine-XL665. Therefore, the fluorescence emissions at 620 nm and 665 nm after excitation at 337 nm were measured in a HTRF reader, e.g. a Pherastar (BMG Labtechnologies, Offenburg, Germany) or a Viewlux (Perkin-Elmer). The ratio of the emissions at 665 nm and at […] was taken as the measure for the amount of phosphorylated substrate.

[2] = molecular target: T2, hK-RasG12C - hSOS1 interaction (Homo sapiens, UniProt Q07889); test: Biochemical Assay 1: hK-RasG12C interaction assay with hSOS1 (HTRF); assay type: binding; conditions: for inhibition at 20 µM: read-out: Assay 1 (hKRAS, hSOS Interaction) activity (expressed as IC50, or as % inhibition at 20 μM); for IC50: values expressed as IC50
T2 construct: hSOS1 (amino acid 564-1049); made in house; host or cells: E. coli BL21 (DE3)
T2 sequence (Q07889 with tags, fused parts or gaps): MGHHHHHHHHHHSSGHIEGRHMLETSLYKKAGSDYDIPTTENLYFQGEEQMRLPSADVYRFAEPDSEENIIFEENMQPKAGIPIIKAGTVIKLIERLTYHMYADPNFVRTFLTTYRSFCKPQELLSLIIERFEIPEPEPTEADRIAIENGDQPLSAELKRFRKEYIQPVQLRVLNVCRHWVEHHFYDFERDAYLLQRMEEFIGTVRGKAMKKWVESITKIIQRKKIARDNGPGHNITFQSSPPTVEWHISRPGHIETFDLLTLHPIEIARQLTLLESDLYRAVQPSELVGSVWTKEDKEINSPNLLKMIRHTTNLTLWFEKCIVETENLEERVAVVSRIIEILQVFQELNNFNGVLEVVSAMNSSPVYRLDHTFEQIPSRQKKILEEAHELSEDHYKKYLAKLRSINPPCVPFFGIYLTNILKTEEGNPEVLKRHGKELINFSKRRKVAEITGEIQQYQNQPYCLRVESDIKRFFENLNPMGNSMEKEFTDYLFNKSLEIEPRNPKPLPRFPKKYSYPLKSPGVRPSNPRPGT
Procedure: Biochemical Assay 1: hK-RasG12C Interaction Assay with hSOS1
This assay quantifies the equilibrium interaction of human SOS1 (hSOS1) with human K-Ras^G12C (hK-RasG12C). Detection of the interaction is achieved by measuring homogenous time-resolved fluorescence resonance energy transfer (HTRF) from antiGST-Europium (FRET donor) bound to GST-K-RasG12C to anti-6His-XL665 bound to His-tagged hSOS1 (FRET-acceptor).
The assay buffer contained 5 mM HEPES pH 7.4 (Applichem), 150 mM NaCl (Sigma), 10 mM EDTA (Promega), 1 mM DTT (Thermofisher), 0.05% BSA Fraction V, pH 7.0, (ICN Biomedicals), 0.0025% (v/v) Igepal (Sigma) and 100 mM KF (FLUKA).
Concentrations of protein batches used were optimized to be within the linear range of the HTRF signal. A Ras working solution was prepared in assay buffer containing typically 10 nM GST-hK-RasG12C and 2 nM antiGST-Eu(K) (Cisbio, France). A SOS1 working solution was prepared in assay buffer containing typically 20 nM His-hSOS1 and 10 nM anti-6His-XL665 (Cisbio, France). An inhibitor control solution was prepared in assay buffer containing 10 nM anti-6His-XL665 without hSOS1.
Fifty nl of a 100-fold concentrated solution of the test compound in DMSO were transferred into a black microtiter test plate (384 or 1536, Greiner Bio-One, Germany) For this, either a Hummingbird liquid handler (Digilab, Mass., USA) or an Echo acoustic system (Labcyte, Calif., USA) was used.
All steps of the assay were performed at 20° C. A volume of 2.5 μl of the Ras working solution was added to all wells of the test plate using a Multidrop dispenser (Thermo Labsystems). After […] preincubation, 2.5 μl of the SOS1 working solution were added to all wells except for those wells at the side of the test plate that were subsequently filled with 2.5 μl of the inhibitor control solution. After […] incubation the fluorescence was measured with a Pherastar (BMG, Germany) using the HTRF module (excitation 337 nm, emission 1:620 nm, emission 2:665 nm).
IC50 values were calculated by 4-Parameter fitting using a commercial software package (Genedata Screener, Switzerland).

T1 sequence (P00533 25-1210): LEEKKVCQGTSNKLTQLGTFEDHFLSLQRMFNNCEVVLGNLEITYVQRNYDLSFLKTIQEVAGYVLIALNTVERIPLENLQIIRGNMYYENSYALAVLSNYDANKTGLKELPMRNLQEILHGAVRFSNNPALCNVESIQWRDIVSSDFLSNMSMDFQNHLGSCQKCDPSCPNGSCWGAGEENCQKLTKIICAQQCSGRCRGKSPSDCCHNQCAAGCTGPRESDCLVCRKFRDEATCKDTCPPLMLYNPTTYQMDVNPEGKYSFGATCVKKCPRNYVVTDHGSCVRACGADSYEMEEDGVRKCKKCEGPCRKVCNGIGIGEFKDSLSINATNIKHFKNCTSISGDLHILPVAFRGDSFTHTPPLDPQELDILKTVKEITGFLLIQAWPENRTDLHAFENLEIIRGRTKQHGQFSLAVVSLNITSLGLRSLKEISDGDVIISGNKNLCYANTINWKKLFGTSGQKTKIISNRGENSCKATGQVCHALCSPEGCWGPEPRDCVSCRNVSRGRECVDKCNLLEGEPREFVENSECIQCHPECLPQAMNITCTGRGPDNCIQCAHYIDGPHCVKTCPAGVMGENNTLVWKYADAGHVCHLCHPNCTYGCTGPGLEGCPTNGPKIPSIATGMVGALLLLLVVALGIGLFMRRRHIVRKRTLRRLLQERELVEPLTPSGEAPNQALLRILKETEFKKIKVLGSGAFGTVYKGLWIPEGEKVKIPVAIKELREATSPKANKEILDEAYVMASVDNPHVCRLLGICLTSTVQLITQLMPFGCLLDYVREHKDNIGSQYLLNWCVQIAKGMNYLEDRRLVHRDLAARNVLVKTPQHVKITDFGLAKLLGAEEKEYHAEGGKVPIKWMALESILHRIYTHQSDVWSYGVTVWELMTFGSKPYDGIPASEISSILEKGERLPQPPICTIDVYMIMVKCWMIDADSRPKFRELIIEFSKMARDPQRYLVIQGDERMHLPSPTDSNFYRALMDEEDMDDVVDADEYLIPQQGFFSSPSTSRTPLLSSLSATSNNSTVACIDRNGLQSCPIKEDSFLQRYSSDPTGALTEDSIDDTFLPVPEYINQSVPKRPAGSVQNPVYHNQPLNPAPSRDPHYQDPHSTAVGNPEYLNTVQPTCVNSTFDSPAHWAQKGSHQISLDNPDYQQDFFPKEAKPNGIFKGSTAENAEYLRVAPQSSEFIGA

| SMILES | IC50 [1] [µM] | inhibition at 20 µM [2] [%] | IC50 [2] [µM] |
| --- | --- | --- | --- |
| Cc1nc(N[C@H](C)c2cccc(Br)c2)c2nc(Oc3ccccc3)ncc2n1 [Example 25, N-[(1R)-1-(3-bromophenyl)ethyl]-2-methyl-6-phenoxypyrimido[5,4-d]pyrimidin-4-amine] | > 20 | 23.7 |  |
| COCCOc1ncc2nc(C)nc(N[C@H](C)c3cccc(Br)c3)c2n1 [Example 26, N-[(1R)-1-(3-bromophenyl)ethyl]-6-(2-methoxyethoxy)-2-methylpyrimido[5,4-d]pyrimidin-4-amine] | > 20 |  | 2.75 |
| Cc1nc(N[C@H](C)c2cccc(Br)c2)c2nc(N3CCOCC3)ccc2n1 [Example 27, N-[(1R)-1-(3-bromophenyl)ethyl]-2-methyl-6-(morpholin-4-yl)pyrido[3,2-d]pyrimidin-4-amine] | > 20 |  | 2.58 |
| COc1ccc2nc(C)nc(N[C@H](C)c3cccc(Br)c3)c2n1 [Example 28, N-[(1R)-1-(3-bromophenyl)ethyl]-6-methoxy-2-methylpyrido[3,2-d]pyrimidin-4-amine] | > 20 | 49.8 |  |
| CCOc1ccc2nc(C)nc(N[C@H](C)c3cccc(Br)c3)c2n1 [Example 29, N-[(1R)-1-(3-bromophenyl)ethyl]-6-ethoxy-2-methylpyrido[3,2-d]pyrimidin-4-amine] | > 20 |  | 17.4 |
| COCCOc1ccc2nc(C)nc(N[C@H](C)c3cccc(Br)c3)c2n1 [Example 30, N-[(1R)-1-(3-bromophenyl)ethyl]-6-(2-methoxyethoxy)-2-methylpyrido[3,2-d]pyrimidin-4-amine] | > 20 |  | 5.43 |
| Cc1nc(N[C@H](C)c2cccc(Br)c2)c2nc(N(C)C)ccc2n1 [Example 31] | > 20 |  | 17.7 |
| Cc1nc(N[C@H](C)c2cccc(Br)c2)c2nc(Oc3ccccc3)ccc2n1 [Example 32, N-[(1R)-1-(3-bromophenyl)ethyl]-2-methyl-6-phenoxypyrido[3,2-d]pyrimidin-4-amine] | > 20 | 22.4 |  |
| Cc1nc(N[C@H](C)c2cccc(Br)c2)c2nc(OCc3ccccc3)ccc2n1 [Example 33, 6-(benzyloxy)-N-[(1R)-1-(3-bromophenyl)ethyl]-2-methylpyrido[3,2-d]pyrimidin-4-amine] | > 20 | 29.3 |  |
| Cc1nc(N[C@H](C)c2cccc(Br)c2)c2cc(F)ncc2n1 [Example 34, N-[(1R)-1-(3-bromophenyl)ethyl]-6-fluoro-2-methylpyrido[3,4-d]pyrimidin-4-amine] | > 20 | 36.7 |  |
| Cc1nc(NC(C)c2ccc(Br)s2)c2cc(F)ncc2n1 (centres unmarked) [Example 35] | > 20 | 23.5 |  |
| CNCc1ccccc1-c1ccc(C(C)Nc2nc(C)nc3cnc(F)cc23)s1 (centres unmarked) [Example 36, 6-fluoro-2-methyl-N-[1-(5-{2-[(methylamino)methyl]phenyl}thiophen-2-yl)ethyl]pyrido[3,4-d]pyrimidin-4-amine] | > 20 |  | 9.03 |
| CNCc1ccccc1-c1ccc(C(C)Nc2nc(C)nc3cnc(Oc4ccc(N5CCCC5=O)cc4)cc23)s1 (centres unmarked) [Example 38, 1-{4-[(2-methyl-4-{[1-(5-{2-[(methylamino)methyl]phenyl}thiophen-2-yl)ethyl]amino}pyrido[3,4-d]pyrimidin-6-yl)oxy]phenyl}pyrrolidin-2-one] | > 20 |  | 0.218 |
| Cc1nc(N[C@H](C)c2cccc(Br)c2)c2cc(NCCN3CCOCC3)ncc2n1 [Example 39] | > 20 |  | 0.876 |
| Cc1nc(N[C@H](C)c2cccc(Br)c2)c2cc(Oc3cccc(O)c3)ncc2n1 [Example 40, 3-[(4-{[(1R)-1-(3-bromophenyl)ethyl]amino}-2-methylpyrido[3,4-d]pyrimidin-6-yl)oxy]phenol] | > 20 |  | 13.2 |
| Cc1nc(N[C@H](C)c2cccc(Br)c2)c2cc(Oc3cccc(C4=NCCN4C)c3)ncc2n1 [Example 41, N-[(1R)-1-(3-bromophenyl)ethyl]-2-methyl-6-[3-(1-methyl-4,5-dihydro-1H-imidazol-2-yl)phenoxy]pyrido[3,4-d]pyrimidin-4-amine] | > 20 |  | 1.6 |
| Cc1nc(N[C@H](C)c2cccc(Br)c2)c2cc(N3CCN(Cc4cccnc4)CC3)ncc2n1 [Example 43, N-[(1R)-1-(3-bromophenyl)ethyl]-2-methyl-6-[4-(pyridin-3-ylmethyl)piperazin-1-yl]pyrido[3,4-d]pyrimidin-4-amine] | > 20 |  | 0.296 |
| CC(=O)NCCNc1cc2c(N[C@H](C)c3cccc(Br)c3)nc(C)nc2cn1 [Example 44, N-{2-[(4-{[(1R)-1-(3-bromophenyl)ethyl]amino}-2-methylpyrido[3,4-d]pyrimidin-6-yl)amino]ethyl}acetamide] | > 20 |  | 0.985 |
| Cc1nc(N[C@H](C)c2cccc(Br)c2)c2cc(N3CCNC(=O)C3)ncc2n1 [Example 45] | > 20 |  | 0.0918 |
| Cc1nc(N[C@H](C)c2cccc(Br)c2)c2cc(NC3CCOCC3)ncc2n1 [Example 46] | > 20 |  | 1.29 |
| Cc1nc(NC(C)c2ccc(-c3ccccc3CN(C)C)s2)c2cc(NCCN3CCOCC3)ncc2n1 (centres unmarked) [Example 48] | > 20 |  | 0.0388 |
| Cc1nc(N[C@H](C)c2cccc(Br)c2)c2cc(NCCn3cccn3)ncc2n1 [Example 49, N4-[(1R)-1-(3-bromophenl)pethyl]-2-methyl-N6-[2-(1H-pyrazol-1-yl)ethyl]pyrido[3,4-d]pyrimidine-4,6-diamine] | > 20 |  | 1.21 |
